# Measured values published in ChEMBL document CHEMBL2390858, “Design, synthesis and anti-tuberculosis activity of 1-adamantyl-3-heteroaryl ureas with improved in vitro pharmacokinetic properties” (Bioorg Med Chem, 2013).
# Assays:
# [1] = molecular target: T1, Bifunctional epoxide hydrolase 2 (Homo sapiens, UniProt P34913)
# T1 sequence (P34913 whole entry): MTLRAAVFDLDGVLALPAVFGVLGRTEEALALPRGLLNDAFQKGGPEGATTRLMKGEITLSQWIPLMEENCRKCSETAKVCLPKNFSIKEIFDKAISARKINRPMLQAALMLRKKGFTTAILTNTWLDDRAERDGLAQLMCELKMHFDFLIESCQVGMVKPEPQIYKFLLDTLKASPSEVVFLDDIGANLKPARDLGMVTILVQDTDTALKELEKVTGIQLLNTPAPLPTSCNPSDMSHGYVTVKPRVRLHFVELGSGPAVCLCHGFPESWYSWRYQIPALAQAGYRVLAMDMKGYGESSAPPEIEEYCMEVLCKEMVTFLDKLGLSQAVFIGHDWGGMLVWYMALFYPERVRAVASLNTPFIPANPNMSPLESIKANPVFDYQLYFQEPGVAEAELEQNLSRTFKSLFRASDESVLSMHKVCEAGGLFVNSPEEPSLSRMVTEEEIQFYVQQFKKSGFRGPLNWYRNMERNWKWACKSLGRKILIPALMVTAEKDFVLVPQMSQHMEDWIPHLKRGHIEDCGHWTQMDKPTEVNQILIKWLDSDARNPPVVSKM
# [2] = buffer, 18 h, pH 7.4
# [3] = tested on: Pseudomonas aeruginosa; test: microbe, parasite or virus in culture
# [4] = tested on: Proteus vulgaris; test: microbe, parasite or virus in culture
# [5] = tested on: Proteus mirabilis; test: microbe, parasite or virus in culture
# [6] = tested on: Klebsiella pneumoniae; test: microbe, parasite or virus in culture
# [7] = tested on: Escherichia coli; test: microbe, parasite or virus in culture; conditions: K-12
# [8] = tested on: Acinetobacter; test: microbe, parasite or virus in culture
# [9] = tested on: Streptococcus pneumoniae; test: microbe, parasite or virus in culture
# [10] = tested on: Streptococcus pyogenes; test: microbe, parasite or virus in culture
# [11] = tested on: Bacillus anthracis; test: microbe, parasite or virus in culture; conditions: Sterne
# [12] = tested on: Burkholderia cepacia; test: microbe, parasite or virus in culture
# [13] = tested on: Bacillus subtilis; test: microbe, parasite or virus in culture
# [14] = tested on: Staphylococcus aureus; test: microbe, parasite or virus in culture; conditions: NRS70
# [15] = tested on: Staphylococcus aureus; test: microbe, parasite or virus in culture; conditions: ATCC 29213
# [16] = tested on: Enterococcus faecalis; test: microbe, parasite or virus in culture
# [17] = tested on: Mycobacterium tuberculosis; test: microbe, parasite or virus in culture; conditions: H37Rv, 168 h
SMILES,IC50 [1],solubility [2],MIC [3],MIC [4],MIC [5],MIC [6],MIC [7],MIC [8],MIC [9],MIC [10],MIC [11],MIC [12],MIC [13],MIC [14],MIC [15],MIC [16],MIC [17]
O=C(Nc1ccccn1)NC12CC3CC(CC(C3)C1)C2,1500 nM,1.4 µg/mL,> 200 µg/mL,> 200 µg/mL,> 200 µg/mL,> 200 µg/mL,> 200 µg/mL,> 200 µg/mL,> 200 µg/mL,> 200 µg/mL,> 200 µg/mL,,,,,,
Cc1noc(NC(=O)NC23CC4CC(CC(C4)C2)C3)c1C,20 nM,5.7 µg/mL,> 200 µg/mL,> 200 µg/mL,> 200 µg/mL,> 200 µg/mL,> 200 µg/mL,,> 200 µg/mL,> 200 µg/mL,,> 200 µg/mL,> 200 µg/mL,> 200 µg/mL,> 200 µg/mL,> 200 µg/mL,100 µg/mL
O=C(Nc1nnc(-c2cccs2)o1)NC12CC3CC(CC(C3)C1)C2,1570 nM,2.2 µg/mL,> 200 µg/mL,> 200 µg/mL,> 200 µg/mL,> 200 µg/mL,> 200 µg/mL,> 200 µg/mL,> 200 µg/mL,> 200 µg/mL,> 200 µg/mL,> 200 µg/mL,> 200 µg/mL,> 200 µg/mL,> 200 µg/mL,,100 µg/mL
CCn1nc(NC(=O)NC23CC4CC(CC(C4)C2)C3)cc1C,2510 nM,13.2 µg/mL,> 200 µg/mL,> 200 µg/mL,> 200 µg/mL,> 200 µg/mL,> 200 µg/mL,> 200 µg/mL,> 200 µg/mL,> 200 µg/mL,> 200 µg/mL,> 200 µg/mL,> 200 µg/mL,> 200 µg/mL,> 200 µg/mL,> 200 µg/mL,12.5 µg/mL
Cn1cc(NC(=O)NC23CC4CC(CC(C4)C2)C3)cn1,488 nM,41.1 µg/mL,> 200 µg/mL,> 200 µg/mL,> 200 µg/mL,> 200 µg/mL,> 200 µg/mL,> 200 µg/mL,> 200 µg/mL,> 200 µg/mL,> 200 µg/mL,> 200 µg/mL,> 200 µg/mL,> 200 µg/mL,> 200 µg/mL,> 200 µg/mL,50 µg/mL
O=C(Nc1ncco1)NC1C2CC3CC(C2)CC1C3 (stereo not drawn),46 nM,14.9 µg/mL,> 200 µg/mL,> 200 µg/mL,> 200 µg/mL,> 200 µg/mL,> 200 µg/mL,> 200 µg/mL,> 200 µg/mL,> 200 µg/mL,> 200 µg/mL,6.25 µg/mL,> 200 µg/mL,200 µg/mL,> 200 µg/mL,> 200 µg/mL,12.5 µg/mL
O=C(Nc1ccc(S(=O)(=O)Nc2ccc(Cl)nn2)cc1)NC12CC3CC(CC(C3)C1)C2,19 nM,20.7 µg/mL,> 200 µg/mL,> 200 µg/mL,100 µg/mL,> 200 µg/mL,> 200 µg/mL,> 200 µg/mL,100 µg/mL,> 200 µg/mL,1.56 µg/mL,100 µg/mL,> 200 µg/mL,,50 µg/mL,100 µg/mL,
Cc1onc(NC(=O)NC23CC4CC(CC(C4)C2)C3)c1Br,0.8 nM,0.1 µg/mL,> 200 µg/mL,> 200 µg/mL,> 200 µg/mL,> 200 µg/mL,50 µg/mL,> 200 µg/mL,> 200 µg/mL,> 200 µg/mL,> 200 µg/mL,,> 200 µg/mL,200 µg/mL,50 µg/mL,,100 µg/mL
Cc1noc(NC(=O)NC23CC4CC(CC(C4)C2)C3)c1Cl,0.5 nM,1.5 µg/mL,> 200 µg/mL,> 200 µg/mL,> 200 µg/mL,> 200 µg/mL,> 200 µg/mL,,> 200 µg/mL,> 200 µg/mL,,> 200 µg/mL,> 200 µg/mL,> 200 µg/mL,> 200 µg/mL,> 200 µg/mL,100 µg/mL
